Results: patent publication US5747461A, “Synergistic administration of cyclosporine and fructose diphosphate” (priority 1994, dated 1998)
Where “and” joins values, the source holds several entries; their conditions need not be identical. Identical values can stand only once.

Legend:
[1] = tested on: rat cardiac allograft; test: Intra-abdominal heart transplantation, series 2 (FDP alone and with cyclosporine); assay type: in vivo; conditions: FDP pre and perioperative only (350 mg/kg IV, infusion 10 mg/kg IV for 90 min); n=5
Description: In a second series of in vivo tests, FDP alone and in conjunction with cyclosporine was tested for its ability to suppress allograft rejection and prolong survival of the transplanted heart. […] Therefore, these tests evaluated FDP in conjunction with sub-optimal doses of CSA.
In these tests, the same procedure as described above was used to transplant hearts into the abdomens of recipient animals. Unlike the earlier tests, the animals also received prophylactic antibiotic treatment following surgery, as well as daily application of Bacitracin ointment of the site of the venous catheter.
The surgical technique used in these tests was exactly the same as described in Example 2, except the animals in this series of tests received prophylactic antibiotic treatment following surgery, and daily application of Bacitracin ointment of the site of the venous catheter.
The animals were divided into the following 6 groups: […]

[2] = tested on: cardiac allograft (Wistar-Furth donor heart in Lewis rat); test: Intra-abdominal heart transplantation, series 1 (graft survival, rejection grade); assay type: in vivo
From the text: Since unwanted T cell stimulation is known to be a primary factor in causing allograft rejection, the results of the in vitro studies discussed above, showing that FDP can suppress T cell stimulation, led to a series of in vivo tests using heart transplantations in rats. These tests are described in detail in Example 2. Briefly, laboratory rats from a strain known as Lewis rats were used as recipients, while rats from a different strain known as Wistar-Furth were used as heart donors.
In the recipient animals, the native heart was not cut out and replaced by a new heart. […] This model provides a good test to determine whether the body will reject the foreign tissue, yet it avoids the extraordinary difficulties that would arise if the animal's native heart were cut out.
In the first round of tests, four treatment groups and one control group were established. The control group received no FDP. The four treatment groups were injected intravenously with 350 mg/kg of FDP 15 minutes prior to surgery, at a dosage of 350 mg/kg (i.e., 350 mg of FDP per kilogram of body weight). The treatment animals also received a 90 minute infusion of FDP during the operation, at a rate of 10 mg/kg/min. In addition to these "perioperative FDP" injections, the four treatment groups also received:
The animals were examined daily for viability. […] When the transplanted heart reached a level of non-viability, a lethal dose of pentobarbital was given, and the heart was removed, examined microscopically, and graded for rejection using the Stanford grading scale.
If a transplanted heart stopped beating prior to three days postoperatively, that animal was dropped from the study. Rats that died within five days of the operation for unknown causes were also dropped from the study. These deaths were believed to be secondary to sepsis, rather than caused by tissue rejection. Also, one animal in Group 1 died from a suture fracture; this animal was also dropped from the study.
Male Wistar-Furth rats (WF;RT-1^u) and male Lewis rats (Lew;RT-1^1)were obtained from Harlan Sprague-Dawley Animal Laboratories. Lewis rats weighing (200-224 gm) were used as recipients. WF rats weighing (200-224 gm) were used as donors.
The Lewis rats were anesthetized with a mixture of ketamine (100 mg/kg) and xylocaine (5 mg/kg) by intraperitoneal injection (IP) 1 to 2 days prior to transplantation. At this time, PE-90 tubing was placed in the internal jugular vein and brought out through the posterior aspect of the neck. The rats were placed in individual cages to prevent dislodging of the catheter. No limits were placed on water or rat chow.
The transplantation procedure was a modified version of Ono and Lindsey's microvascular technique for intra-abdominal transplantation. WF rats were anesthetized with pentobarbital (50 mg/kg). The chest and abdomen were shaved and prepped with betadine and then placed on a thermostatically controlled operating platform. […] After three minutes, the sternum and anterior chest were separated from the diaphragm and lateral ribs with heavy scissors. The chest cavity was opened and the IVC was ligated using a 5-0 silk ligature. The aorta was then dissected out and cross clamped at the level of the innominate artery. Three cc of cold cardioplegia solution (4° C.) was injected into the aortic root with a 25 gauge needle. The aorta was divided below the clamp. The pulmonary artery was dissected free and divided at its bifurcation. […] The heart was then removed and placed in iced saline with heparin (2 units/ml).
Lewis rats were then anesthetized in a similar fashion. After shaving and prepping the abdomen, a mid-line incision was made. The IVC and the infrarenal aorta were mobilized together. A curved bulldog was then used to cross clamp the vessels. The anastomosis was sewn between the […] and IVC using a 9-0 Ethicon microsurgical suture. The aorta-aorta anastomosis was then performed in a similar end-side fashion. […]

[3] = tested on: Concanavalin A-stimulated T-lymphocytes; test: Thymidine incorporation by Concanavalin A-stimulated T-lymphocytes; assay type: cell-based, rat; conditions: ConA-stimulated
Description: The in vitro tests, and their results, are described in detail in Example 1. Briefly, T lymphocytes were obtained from rat spleens. The cells were then stimulated by Concanavalin A (ConA), a mitogen that specifically stimulates T lymphocyte replication, both in control samples and in samples that were also contacted with either FDP or cyclosporine at various concentrations. Cell replication was measured by assaying the uptake of thymidine which had been radiolabelled using tritium, a heavy isotope of hydrogen. Cell viability was measured using a dye, trypan blue; intact and viable cells can exclude trypan blue from their interiors, while damaged or dead cells cannot.
Sprague-Dawley rats (150-200 gm body weight) were euthanized by overdose of ketamine (injected intramuscularly, IM). Their spleens were removed under sterile conditions and placed in a plastic petri dish with Buffered Hanks Solution (BHS). The splenic parenchyma was torn apart with sterile needles and forceps. The solution with the splenic fragments was homogenized with a Teflon pestle in a glass tube. This allowed the cells to be expressed into the solution which was then filtered and placed over Ficoll-Hypaque and centrifuged at 1500 RPM for 20 minutes in order to separate mononuclear cells. The middle layer of cells (containing lymphocytes) was removed and centrifuged at 1000 RPM for 10 min. After removing the supernates, the remaining red blood cells were lysed with 0.83% NH4 Cl solution, and the cells were again centrifuged at 1000 RPM for 2-3 min. The supernate was poured off and the cells were washed twice with BHS and then resuspended in tissue culture media (RPMI-1640 with 10% fetal calf serum). The cells then were adjusted to final concentration of 5×10^6 cells/ml with RPMI-1640 and 10% fetal calf serum.
A tissue culture multi-well plate was used for incubation. All well filling was done under sterile conditions. […] The well volume capacity was 0.35 ml.
Six different dilutions (freshly prepared in sterile water solution from 10% FDP stock solutions) were used--1:10, 1:100, 1:250, 1:500, 1:1000 and 1:10000. […] A few wells were used to measure the stimulation index, and received ConA or RPMI without FDP or Cyclosporine. All combinations were run in triplicate. The wells were labeled and incubated with CO2 at 35° C. for 48 hours.
Each well then received 0.05 ml of tritiated (^3 H) thymidine (1 μCi/0.05 ml). Radiolabelled thymidine is taken up by proliferating lymphocytes, allowing them to be counted using a liquid scintillation counter. After 16 to 20 hours of incubation the samples were harvested onto glass filter paper strips using a multiple automated sample harvester. The paper was allowed to dry 4-5 hours. Paper from each well was placed in scintillation counting vials with 5 ml fluorane (scintillene). […] Significance was assessed by unpaired t-test.

[4] = tested on: ischemically stored kidneys; test: Oxygen consumption after hypothermic ischemic storage, kidney; parameters: species or system rat; conditions: kidneys n=11; FDP 1 mg/ml in storage solution; 16 to 20 hours storage
Description: (§1) Sprague Dawley rats (150-180 gm/body weight) were anesthetized with Ketamine 35 mg/kg. The liver, kidney and heart were excised and placed in 50 ml of a standard cardioplegia solution sold under the trademark ISOLYTE (which contained Na^+ -41 mEq/L, K^+ -16 mEq/L, Ca^++ -5 mEq/L, Mg^++ 3 mEq/L, Cl^- -40 mEq/L, acetate 24 mEq/L with 5% Dextrose), precooled to 4° C. To half of the storage containers, 1 mg/ml of 10% FDP was added; to the rest of the containers, a similar amount of glucose was added. The containers were placed on ice in a refrigerator. After storage for 16 to 20 hours, the organs were weighed and placed in a metabolic chamber for determination of oxygen consumption,using a Clark polarographic electrode. The total volume of the chamber was 10 ml and the composition of the medium was 8 ml phosphate buffered saline (PBS Dulbecco, Mg^++ and Ca^++ free) and 2 cc of Dextrose at a temperature of 36°±0.2° C. The organ was placed in the chamber and 100% oxygen was bubbled for 45 sec. The partial pressure of the dissolved oxygen was usually 480-560 mm Hg. Then the chamber was sealed hermetically, and O2 consumption by the organ was recorded on a strip chart recorder at a speed of 1 cm/min. Initial and final PO2 levels of medium in the chamber were measured on a Radiometer Blood Gas Analyzer Model ABL-4.

[5] = tested on: ischemically stored hearts; test: Oxygen consumption after hypothermic ischemic storage, heart; parameters: species or system rat; conditions: hearts n=4; FDP 1 mg/ml in storage solution; 16 to 20 hours storage
Description: as §1

[6] = tested on: ischemically stored livers; test: Oxygen consumption after hypothermic ischemic storage, liver; parameters: species or system rat; conditions: livers n=12; FDP 1 mg/ml in storage solution; storage 17.62±0.22 hours at 4° C.; measured at 36.4° C.
Description: as §1

[7] = tested on: ex vivo stored hearts; test: Ex vivo cold ischemic storage and reperfusion of hearts (Langendorf apparatus); parameters: species or system rat
Description: Hearts were harvested from ketamine-anesthetized Sprague Dawley rats (350-450 gm body weight). Prior to harvesting the hearts, 17 randomly chosen rats received an intravenous bolus injection of FDP 450 mg/kg (10%). The hearts were removed, the left atria and aorta were attached to a modified Langendorf apparatus within 3 min, and the hearts were perfused ex vivo for 15 min at 37° C. with Krebs-Henseleit solution to which 0.07 mg/ml of FDP had been added. Rats in the control group (n=21) received an equivalent volume saline injection prior to surgery, and the hearts were perfused for 15 min with Krebs-Henseleit solution containing no FDP. Heart rates, systolic and diastolic pressures, cardiac outputs, and coronary blood flow during this period were measured and recorded.
After the 15 minute perfusion period, the control hearts (n=21) were flushed with cardioplegic solution (Isolyte, K^+ 20 mEq/L). The FDP=treated hearts (n=17) were flushed with the same solution containing 1 mg/cc of FDP. The hearts were respectively placed in cold (4° C.) saline solution, with 0.9% NaCl or 0.9% NaCl containing 1 mg/ml FDP, and stored at 4° C. for 4 hours. After the 4 hour storage period was completed, the hearts were reperfused and warmed to 37° C. again. Seven hearts from each group were taken out of the Langendorf apparatus after 15 minutes and analyzed for myocardial ATP content. The remaining hearts (10 in the treatment group, and 14 in the control group) were measured in various ways (heartbeat rates, mean aortic and systolic pressures, and cardiac output) for 2 hours following the commencement of reperfusion.

[8] = Group 1 perioperative FDP, Stanford grading scale

O=C(COP(=O)(O)O)[C@@H](O)[C@H](O)[C@H](O)COP(=O)(O)O [FDP, fructose-1,6-diphosphate] was tested, and the “MST ± SEM (cardiac allograft survival)” value [1] was 11.4 Days and 11.4 ± 0.74 Days, the “Mean Survival Time MST ± SE (graft)” value ([2]; Group 1: perioperative FDP (350 mg/kg IV + 10 mg/kg/min 90 min), no supplemental injections) was 13.5 days and 13.5 ± 1.4101 days and the “Rejection Grades: number of hearts graded Moderate” value [2, 8] was 1. For the same compound, the “Rejection Grades: number of hearts graded Severe/Advanced” value [2, 8] was 8, the “Rejection Grades: number of hearts graded Mild” value ([2]; Group 1 perioperative FDP, Stanford grading scale, N 11, 1 heart not evaluated) was 1 and the “Mean Survival Time MST ± SE (graft)” value ([2]; Group 2: perioperative FDP + 350 mg/kg every 12 hours (bid), 350 mg/kg) was 8.9 days and 8.9 ± 0.5154 days. For the same compound, the “Rejection Grades: number of hearts graded Mild” value ([2]; Group 2 FDP bid, N 8) was 1, the “Rejection Grades: number of hearts graded Moderate” value ([2]; Group 2 FDP bid, N 8) was 1 and the “Rejection Grades: number of hearts graded Severe/Advanced” value ([2]; Group 2 FDP bid, N 8) was 6. For the same compound, the “Mean Survival Time MST ± SE (graft)” value ([2]; Group 3: perioperative FDP + 350 mg/kg every 8 hours (tid), 350 mg/kg) was 10 days and 10.0 ± 0.5345 days, the “Rejection Grades: number of hearts graded Moderate” value ([2]; Group 3 FDP tid, N 8) was 1 and the “Rejection Grades: number of hearts graded Severe/Advanced” value ([2]; Group 3 FDP tid, N 8) was 7. For the same compound, the “Mean Survival Time MST ± SE (graft)” value ([2]; Group 4: perioperative FDP + 350 mg/kg every 6 hours (qid), 350 mg/kg) was 9.6 days and 9.4 ± 0.8004 days, the “Rejection Grades: number of hearts graded Severe/Advanced” value ([2]; Group 4 FDP qid, N 8) was 8 and the “rejection grades (span in the group)” value ([2]; Group I perioperative FDP, Stanford grading scale) was “mild to severe/advanced”. The “rejection grades (span in the group)” value ([2]; Group II FDP every 12 hours) was “mild to severe/advanced”, the “rejection grades (span in the group)” value ([2]; Group III FDP every 8 hours) was “moderate to severe/advanced” and the “rejection grades (span in the group)” value ([2]; Group IV FDP every 6 hours) was “severe/advanced”. For the same compound, the Thymidine incorporation ([3]; FDP 1:10 dilution of 10% stock) was 136 counts per 2 minute period, the Thymidine incorporation ([3]; FDP 1:100 dilution of 10% stock) was 1175 counts per 2 minute period and the Thymidine incorporation ([3]; FDP 1:250 dilution of 10% stock) was 24818 counts per 2 minute period. The Thymidine incorporation ([3]; FDP 1:500 dilution of 10% stock) was 52481 counts per 2 minute period, the Thymidine incorporation ([3]; FDP 1:1000 dilution of 10% stock) was 62518 counts per 2 minute period and the Thymidine incorporation ([3]; FDP 1:10000 dilution of 10% stock, mean of 13 experiments) was 89032 counts per 2 minute period. For the same compound, the “post-storage O2 consumption” value [4] was 74.15±4.8 mmHg O2 /min/gm, the “post-storage O2 consumption” value [5] was 68.4±3.14 mmHg O2 /min/gm and the “oxygen consumption after ischemic storage” value [6] was 76.7±4.4 O2 mmHg/min/gm. The “myocardial ATP content vs control group” value ([7]; after 15 min of reperfusion, FIG. 5, p<0.01) was “higher”, the “hearts still showing a heartbeat” value ([7]; after 1 hour and 30 min of reperfusion following 4 h storage at 4° C., n=10, controls 5 of 14) was “all” and the “post-storage heartbeat rate vs control group” value ([7]; after 4 h cold storage, FIG. 1) was “significantly higher”. For the same compound, the “peak systolic aortic pressures vs control group” value ([7]; after 4 h cold storage, FIG. 2) was “significantly higher”, the “mean pressures vs control group” value ([7]; after 4 h cold storage, FIG. 3) was “significantly higher” and the “cardiac output rates vs control group” value ([7]; after 4 h cold storage, FIG. 4) was “significantly higher”.
